Legend:
human TLR8 = target: T1, human TLR8 (Homo sapiens, UniProt Q9NR97); assay: HEK Reporter Assay, HEK293 NFKB reporter cells expressing human TLR8; type: cell-based; conditions: read-out: HEK293 hTLR8 EC50
T1 construct: host or cells: HEK293 NF-kB reporter cells
T1 sequence (Q9NR97 27-1041): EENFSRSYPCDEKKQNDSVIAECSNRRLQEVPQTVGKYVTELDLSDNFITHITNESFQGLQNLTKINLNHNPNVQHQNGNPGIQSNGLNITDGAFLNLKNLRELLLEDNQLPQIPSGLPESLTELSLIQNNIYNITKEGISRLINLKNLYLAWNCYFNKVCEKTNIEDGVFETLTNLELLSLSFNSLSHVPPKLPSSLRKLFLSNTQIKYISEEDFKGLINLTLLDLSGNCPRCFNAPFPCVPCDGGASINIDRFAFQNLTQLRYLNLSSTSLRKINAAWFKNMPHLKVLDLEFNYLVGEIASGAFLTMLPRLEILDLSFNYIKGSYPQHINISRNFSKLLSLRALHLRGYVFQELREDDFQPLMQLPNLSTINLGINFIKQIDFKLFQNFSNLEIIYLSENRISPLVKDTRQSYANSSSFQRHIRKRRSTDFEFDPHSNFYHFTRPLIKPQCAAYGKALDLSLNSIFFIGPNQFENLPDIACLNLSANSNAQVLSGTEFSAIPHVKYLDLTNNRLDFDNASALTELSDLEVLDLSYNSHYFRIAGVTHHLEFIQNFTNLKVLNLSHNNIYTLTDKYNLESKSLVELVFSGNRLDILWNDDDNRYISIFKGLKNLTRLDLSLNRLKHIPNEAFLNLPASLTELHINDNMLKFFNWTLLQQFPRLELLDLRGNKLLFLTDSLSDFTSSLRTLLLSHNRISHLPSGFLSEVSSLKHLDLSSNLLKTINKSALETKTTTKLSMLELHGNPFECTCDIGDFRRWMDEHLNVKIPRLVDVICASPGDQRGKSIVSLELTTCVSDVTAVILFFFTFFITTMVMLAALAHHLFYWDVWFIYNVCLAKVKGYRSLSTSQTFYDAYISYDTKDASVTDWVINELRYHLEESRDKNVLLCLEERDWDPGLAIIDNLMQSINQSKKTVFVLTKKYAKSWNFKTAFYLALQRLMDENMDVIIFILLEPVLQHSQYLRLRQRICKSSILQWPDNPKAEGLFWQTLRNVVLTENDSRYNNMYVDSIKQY
Method: (§1) Each compound was synthesized, purified, and characterized by mass spectrometry and shown to have the mass indicated. Additional experimental procedures are found in the Examples. Activity against Human Embryonic Kidney (HEK) 293 NFKB reporter cells expressing human TLR7 or human TLR8 was measured according to Example 202.
(§2) Human Embryonic Kidney (HEK293) reporter cells expressing human TLR7 or human TLR8 (InvivoGen, San Diego Calif.), were used with vendor protocols for cellular propagation and experimentation. Briefly, cells were grown to 80-85% confluence at 5% CO2 in DMEM supplemented with 10% FBS, ZEOCIN™, and Blasticidin. Cells were then seeded in 96-well flat plates at 4×10^4 cells/well with substrate containing HEK detection medium and immunostimulatory molecules.

human TLR7 = target: T2, human TLR7 (Homo sapiens, UniProt Q9NYK1); assay: HEK Reporter Assay, HEK293 NFKB reporter cells expressing human TLR7; type: cell-based; conditions: read-out: HEK293 hTLR7 EC50
T2 construct: host or cells: HEK293 NF-kB reporter cells
T2 sequence (Q9NYK1 27-1049): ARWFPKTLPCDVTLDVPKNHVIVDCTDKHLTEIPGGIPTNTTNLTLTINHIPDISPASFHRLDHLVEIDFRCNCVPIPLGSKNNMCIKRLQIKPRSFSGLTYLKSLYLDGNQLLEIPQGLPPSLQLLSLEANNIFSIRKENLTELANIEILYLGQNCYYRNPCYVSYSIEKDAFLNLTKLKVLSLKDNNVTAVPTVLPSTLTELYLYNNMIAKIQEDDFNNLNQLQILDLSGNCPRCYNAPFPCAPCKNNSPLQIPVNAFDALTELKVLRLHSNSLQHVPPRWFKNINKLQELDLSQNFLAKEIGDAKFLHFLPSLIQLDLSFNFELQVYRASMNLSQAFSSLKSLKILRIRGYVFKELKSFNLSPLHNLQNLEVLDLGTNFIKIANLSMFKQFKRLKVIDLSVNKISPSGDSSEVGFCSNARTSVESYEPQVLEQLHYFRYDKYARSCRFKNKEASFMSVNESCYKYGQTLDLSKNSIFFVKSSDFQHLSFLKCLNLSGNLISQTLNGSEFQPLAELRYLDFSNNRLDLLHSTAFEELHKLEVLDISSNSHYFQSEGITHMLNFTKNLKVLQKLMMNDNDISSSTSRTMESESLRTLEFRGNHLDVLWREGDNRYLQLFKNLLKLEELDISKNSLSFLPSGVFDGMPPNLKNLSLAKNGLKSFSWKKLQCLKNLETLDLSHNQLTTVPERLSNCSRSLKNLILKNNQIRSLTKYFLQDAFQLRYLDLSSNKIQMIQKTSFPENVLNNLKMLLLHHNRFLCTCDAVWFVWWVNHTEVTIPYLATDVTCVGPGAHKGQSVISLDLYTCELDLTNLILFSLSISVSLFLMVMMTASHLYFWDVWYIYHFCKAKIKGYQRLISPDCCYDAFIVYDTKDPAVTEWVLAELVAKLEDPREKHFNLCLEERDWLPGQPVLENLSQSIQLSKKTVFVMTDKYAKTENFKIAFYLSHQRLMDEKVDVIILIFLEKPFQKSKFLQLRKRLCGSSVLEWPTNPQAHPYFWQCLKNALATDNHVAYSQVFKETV
Method: as §1, §2

Work on `CCCN(OCC)C(=O)C1=Cc2ccc(-c3cnc(C#N)nc3)cc2N=C(N)C1` [HxBz-1] yielded an EC50 (human TLR8) of 163 nM and an EC50 (human TLR7) of 2540 nM.
For `CCCN(OCC)C(=O)C1=Cc2ccc(-c3cccnn3)cc2N=C(N)C1` [HxBz-2], the EC50 (human TLR8) was 276 nM and the EC50 (human TLR7) was 2240 nM.
In the case of `CCCN(OCC)C(=O)C1=Cc2ccc(-c3cnc(N4CCNCC4)nc3)cc2N=C(N)C1` [HxBz-3, 2-amino-N-ethoxy-8-(2-piperazin-1-ylpyrimidin-5-yl)-N-propyl-3H-1-benzazepine-4-carboxamide], the EC50 (human TLR8) is reported as 43 nM and the EC50 (human TLR7) is reported as 562 nM.
`CCCN(OCC)C(=O)C1=Cc2ccc(-c3cnc(N4CCN(C(=O)OC(C)(C)C)CC4)nc3)cc2N=C(N)C1` [HxBz-4, tert-butyl 4-[5-[2-amino-4-[ethoxy (propyl)carbamoyl]-3H-1-benzazepin-8-yl]pyrimidin-2-yl]piperazine-1-carboxylate] gave an EC50 (human TLR8) of 350 nM and an EC50 (human TLR7) of 3260 nM.
With `CCCN(OCC)C(=O)C1=Cc2ccc(-c3cnc(CN)nc3)cc2N=C(N)C1` [HxBz-5, 2-amino-8-[2-(aminomethyl)pyrimidin-5-yl]-N-ethoxy-N-propyl-3H-1-benzazepine-4-carboxamide] the EC50 (human TLR8) was 17 nM and the EC50 (human TLR7) was 525 nM.
`CCCN(OCC)C(=O)C1=Cc2ccc(-c3ccc(C(=O)OC)nn3)cc2N=C(N)C1` [HxBz-6] was tested, and the EC50 (human TLR8) was 339 nM and the EC50 (human TLR7) was 2660 nM.
For `CCCN(OCC)C(=O)C1=Cc2ccc(-c3cncc(S(=O)(=O)N4CC(CN)C4)c3)cc2N=C(N)C1` [HxBz-7, 2-amino-8-[5-[3-(aminomethyl)azetidin-1-yl]sulfonyl-3-pyridyl]-N-ethoxy-N-propyl-3H-1-benzazepine-4-carboxamide], the EC50 (human TLR8) was 335 nM and the EC50 (human TLR7) was 3630 nM.
`CCCN(OCC)C(=O)C1=Cc2ccc(-c3cnn(S(=O)(=O)N4CC(CN)C4)c3)cc2N=C(N)C1` [HxBz-9] was tested, and the EC50 (human TLR8) was 397 nM and the EC50 (human TLR7) was 8630 nM.
Work on `CCCN(OCC)C(=O)C1=Cc2ccc(-c3ncc(CN)cn3)cc2N=C(N)C1` [HxBz-10] yielded an EC50 (human TLR8) of 814 nM.
`CCCN(OCC)C(=O)C1=Cc2ccc(-c3cnc(C(=O)OC)nc3)cc2N=C(N)C1` [HxBz-11, methyl 5-(2-amino-4-(ethoxy(propyl)carbamoyl)-3H-benzo[b]azepin-8-yl)pyrimidine-2-carboxylate] was tested, and the EC50 (human TLR8) was 161 nM and the EC50 (human TLR7) was 4070 nM.
With `CCCN(OCC)C(=O)C1=Cc2ccc(-c3cnc(C(=O)N4CCC[C@H]4C(=O)OC)nc3)cc2N=C(N)C1` [HxBz-12] the EC50 (human TLR8) was 6 nM and the EC50 (human TLR7) was 159 nM.
In the case of `CCCN(CCCNC(=O)OC1CCC1)C(=O)C1=Cc2ccc(-c3cnc(CN)nc3)cc2N=C(N)C1` [HxBz-13, cyclobutyl N-[3-[[2-amino-8-[2-(aminomethyl)pyrimidin-5-yl]-3H-1-benzazepine-4-carbonyl]-propyl-amino]propyl]carbamate], the EC50 (human TLR8) is reported as 274 nM and the EC50 (human TLR7) is reported as 242 nM.
With `CCCN(OCCNC(=O)OC1CCC1)C(=O)C1=Cc2ccc(-c3cnc(CN)nc3)cc2N=C(N)C1` [HxBz-15, cyclobutyl N-[2-[[2-amino-8-[2-(aminomethyl)pyrimidin-5-yl]-3H-1-benzazepine-4-carbonyl]-propyl-amino]oxyethyl]carbamate] the EC50 (human TLR8) was 10 nM and the EC50 (human TLR7) was 35 nM.
Molecule `CCCN(OCCNC(=O)NC1CCC1)C(=O)C1=Cc2ccc(-c3cnc(CN)nc3)cc2N=C(N)C1` [HxBz-16, 2-amino-8-[2-(aminomethyl)pyrimidin-5-yl]-N-[2-(cyclobutylcarbamoylamino)ethoxy]-N-propyl-3H-1-benzazepine-4-carboxamide] has an EC50 (human TLR8) of 399 nM and an EC50 (human TLR7) of 4600 nM.
For `CCCN(OCC)C(=O)C1=Cc2ccc(N3CCNCC3)cc2N=C(N)C1` [HxBz-18], the EC50 (human TLR8) was 281 nM and the EC50 (human TLR7) was 6310 nM.
Molecule `CCCN(OCCNC(=O)N(C)C)C(=O)C1=Cc2ccc(-c3cnc(CN)nc3)cc2N=C(N)C1` [HxBz-20] has an EC50 (human TLR8) of 3690 nM and an EC50 (human TLR7) of 2940 nM.
With `CCCN(OCCO)C(=O)C1=Cc2ccc(-c3cnc(CN)nc3)cc2N=C(N)C1` [HxBz-22, 2-amino-8-[2-(aminomethyl)pyrimidin-5-yl]-N-(2-hydroxyethoxy)-N-propyl-3H-1-benzazepine-4-carboxamide] the EC50 (human TLR8) was 1150 nM and the EC50 (human TLR7) was 3920 nM.
`CCCN(OCCNC(=O)N1CCOCC1)C(=O)C1=Cc2ccc(-c3cnc(CN)nc3)cc2N=C(N)C1` [HxBz-23] gave an EC50 (human TLR8) of 6180 nM and an EC50 (human TLR7) of 6880 nM.
With `CCCN(CC1CNC(=O)O1)C(=O)C1=Cc2ccc(-c3cnc(CN)nc3)cc2N=C(N)C1` (centres unmarked) [HxBz-25] the EC50 (human TLR8) was 3160 nM.
For `CCCN(OCCNC(=O)OC(C)C)C(=O)C1=Cc2ccc(-c3cnc(CN)nc3)cc2N=C(N)C1` [HxBz-27, isopropyl N-[2-[[2-amino-8-[2-(aminomethyl)pyrimidin-5-yl]-3H-1-benzazepine-4-carbonyl]-propyl-amino]oxyethyl]carbamate], the EC50 (human TLR8) was 9 nM and the EC50 (human TLR7) was 26 nM.
`CCCN(OCCNC(=O)NCC)C(=O)C1=Cc2ccc(-c3cnc(CN)nc3)cc2N=C(N)C1` [HxBz-28] showed an EC50 (human TLR8) of 2930 nM and an EC50 (human TLR7) of 3770 nM.
For `CCCN(CCCNC(=O)OC(C)C)C(=O)C1=Cc2ccc(-c3cnc(CN)nc3)cc2N=C(N)C1` [HxBz-29], the EC50 (human TLR8) was 296 nM and the EC50 (human TLR7) was 134 nM.
Work on `CCCN(OC(C)C)C(=O)C1=Cc2ccc(-c3cnc(CN)nc3)cc2N=C(N)C1` [HxBz-30] yielded an EC50 (human TLR8) of 40 nM and an EC50 (human TLR7) of 393 nM.
For `CCCN(OCC(C)C)C(=O)C1=Cc2ccc(-c3cnc(CN)nc3)cc2N=C(N)C1` [HxBz-31], the EC50 (human TLR8) was 358 nM and the EC50 (human TLR7) was 763 nM.
For `CCCN(CCCNC(=O)OC1CCC1)C(=O)C1=Cc2ccc(-c3cncc(S(=O)(=O)N4CC(CN)C4)c3)cc2N=C(N)C1` [HxBz-32, cyclobutyl N-[3-[[2-amino-8-[5-[3-(aminomethyl)azetidin-1-yl]sulfonyl-3-pyridyl]-3H-1-benzazepine-4-carbonyl]-propyl-amino]propyl]carbamate], the EC50 (human TLR8) was 1520 nM and the EC50 (human TLR7) was 1280 nM.
In the case of `CCCN(CCCNC(=O)OC(C)C)C(=O)C1=Cc2ccc(-c3cncc(S(=O)(=O)N4CC(CN)C4)c3)cc2N=C(N)C1` [HxBz-33], the EC50 (human TLR8) is reported as 2880 nM and the EC50 (human TLR7) is reported as 7630 nM.
Work on `CCCN(OCCNC(=O)OC1CCC1)C(=O)C1=Cc2ccc(-c3cncc(S(=O)(=O)N4CC(CN)C4)c3)cc2N=C(N)C1` [HxBz-34] yielded an EC50 (human TLR8) of 79 nM and an EC50 (human TLR7) of 322 nM.
`CCCN(OCCO)C(=O)C1=Cc2ccc(-c3cncc(S(=O)(=O)N4CC(CN)C4)c3)cc2N=C(N)C1` [HxBz-43] was tested, and the EC50 (human TLR8) was 6160 nM.
`CCCN(C(=O)C1=Cc2ccc(-c3cnc(CN)nc3)cc2N=C(N)C1)[C@H]1C[C@H](NC(=O)OC2CCC2)C1` [HxBz-44] was tested, and the EC50 (human TLR8) was 6350 nM.
`CCCN(OCC1COC(=O)N1)C(=O)C1=Cc2ccc(-c3cnc(CN)nc3)cc2N=C(N)C1` (centres unmarked) [HxBz-46] was tested, and the EC50 (human TLR8) was 3580 nM.
`CCCN(OCC)C(=O)C1=Cc2ccc(-c3cnnc(CN)c3)cc2N=C(N)C1` [HxBz-48] gave an EC50 (human TLR8) of 2160 nM.
